Reference: PubChem BioAssay AID743510 (Broad Institute, 2014)
Active and inactive are the calls of the source.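 Rule for the calls: active = compounds that block bursicon-driven reporter light with an IC50 below a set limit; inactive = IC50 above that limit.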

Target: Bursicon receptor LGR2 (rickets), Drosophila melanogaster
Test: inhibition of bursicon-stimulated LGR2 cAMP signaling – cell-based, HEK293, CRE-luciferase, beta-gal normalized, dry powder, dose response (AID 743510)
Details: antagonist luminescence

Q: For `C[C@@H]1CCCCO[C@H](CN(C)C(=O)Nc2cccc3ccccc23)[C@@H](C)CN([C@H](C)CO)C(=O)c2cc(NC(=O)C3CCCCC3)ccc2O1`, which IC50 is on record?
A: > 35 µM (inactive)

Q: How did the IC50 turn out when `C[C@H](CO)N1C[C@H](C)[C@H](CN(C)C(=O)Nc2ccc(F)cc2)OCCCC[C@H](C)Oc2ccc(NC(=O)C3CCCCCC3)cc2C1=O` was run?
A: < 35 µM

Q: `C[C@@H]1CCCCO[C@H](CN(C)C(=O)Nc2cccc3ccccc23)[C@@H](C)CN([C@@H](C)CO)C(=O)c2cc(NC(=O)C3CCCCC3)ccc2O1` was tested. Which IC50 did it give?
A: > 35 µM (inactive)

Q: With `C[C@H](CO)N1C[C@H](C)[C@H](CN(C)C(=O)Nc2ccccc2F)OCCCC[C@H](C)Oc2ccc(NC(=O)C3CCCCC3)cc2C1=O` as the compound, how does the IC50 read?
A: < 35 µM

Q: Which IC50 does the source give for `C[C@@H]1CN([C@@H](C)CO)C(=O)c2cc(NC(=O)C3CCCCC3)ccc2O[C@@H](C)CCCCO[C@@H]1CN(C)C(=O)Nc1cccc2ccccc12` here?
A: > 35 µM (inactive)

Q: With `Cc1ccc(NC(=O)N(C)C[C@@H]2OCCCC[C@H](C)Oc3ccc(NC(=O)C4CCCCC4)cc3C(=O)N([C@H](C)CO)C[C@@H]2C)cc1` as the compound, how does the IC50 read?
A: < 35 µM

Q: How did the IC50 turn out when `C[C@H](CO)N1C[C@H](C)[C@H](CN(C)C(=O)Nc2ccc(F)cc2)OCCCC[C@H](C)Oc2ccc(NC(=O)C3CCCC3)cc2C1=O` was run?
A: < 35 µM

Q: Which IC50 does the source give for `C[C@@H]1CCCCO[C@@H](CN(C)C(=O)Nc2cccc3ccccc23)[C@@H](C)CN([C@@H](C)CO)C(=O)c2cc(NC(=O)C3CCCCC3)ccc2O1` here?
A: > 35 µM (inactive)

Q: For `C[C@H](CO)N1C[C@H](C)[C@H](CN(C)C(=O)Nc2ccc(F)cc2)OCCCC[C@H](C)Oc2ccc(NC(=O)C3CC3)cc2C1=O`, which IC50 is on record?
A: > 35 µM (inactive)

Q: How did the IC50 turn out when `C[C@@H]1CN([C@H](C)CO)C(=O)c2cc(NC(=O)C3CCCCC3)ccc2O[C@@H](C)CCCCO[C@H]1CN(C)C(=O)Nc1cccc2ccccc12` was run?
A: > 35 µM (inactive)

Q: For `C[C@@H]1CCCCO[C@@H](CN(C)C(=O)Nc2cccc3ccccc23)[C@@H](C)CN([C@H](C)CO)C(=O)c2cc(NC(=O)C3CCCCC3)ccc2O1`, which IC50 is on record?
A: > 35 µM (inactive)

Q: How did the IC50 turn out when `C[C@@H]1CCCCO[C@H](CN(C)C(=O)Nc2cccc3ccccc23)[C@H](C)CN([C@@H](C)CO)C(=O)c2cc(NC(=O)C3CCCCC3)ccc2O1` was run?
A: > 35 µM (inactive)

Q: How did the IC50 turn out when `CC(=O)Nc1ccc2c(c1)C(=O)N([C@H](C)CO)C[C@H](C)[C@H](CN(C)C(=O)Nc1ccc(F)cc1)OCCCC[C@H](C)O2` was run?
A: > 35 µM (inactive)

Q: Which IC50 does the source give for `C[C@H](CO)N1C[C@H](C)[C@H](CN(C)C(=O)Nc2cccc(F)c2)OCCCC[C@H](C)Oc2ccc(NC(=O)C3CCCCC3)cc2C1=O` here?
A: < 35 µM

Q: `C[C@H]1CCCCO[C@@H](CN(C)C(=O)Nc2cccc3ccccc23)[C@@H](C)CN([C@@H](C)CO)C(=O)c2cc(NC(=O)C3CCCCC3)ccc2O1` was tested. Which IC50 did it give?
A: < 35 µM

Q: How did the IC50 turn out when `C[C@H](CO)N1C[C@H](C)[C@@H](CN(C)C(=O)Nc2cccc3ccccc23)OCCCC[C@H](C)Oc2ccc(NC(=O)C3CCCCC3)cc2C1=O` was run?
A: > 35 µM (inactive)

Q: For `C[C@@H]1CN([C@H](C)CO)C(=O)c2cc(NC(=O)C3CCCCC3)ccc2O[C@@H](C)CCCCO[C@@H]1CN(C)C(=O)Nc1cccc2ccccc12`, which IC50 is on record?
A: > 35 µM (inactive)

Q: How did the IC50 turn out when `C[C@@H]1CCCCO[C@@H](CN(C)C(=O)Nc2cccc3ccccc23)[C@H](C)CN([C@H](C)CO)C(=O)c2cc(NC(=O)C3CCCCC3)ccc2O1` was run?
A: > 35 µM (inactive)

Q: How did the IC50 turn out when `C[C@@H]1CCCCO[C@H](CN(C)C(=O)Nc2cccc3ccccc23)[C@H](C)CN([C@H](C)CO)C(=O)c2cc(NC(=O)C3CCCCC3)ccc2O1` was run?
A: > 35 µM (inactive)

Q: Which IC50 does the source give for `C[C@@H]1CN([C@@H](C)CO)C(=O)c2cc(NC(=O)C3CCCCC3)ccc2O[C@@H](C)CCCCO[C@H]1CN(C)C(=O)Nc1cccc2ccccc12` here?
A: < 35 µM

Q: `C[C@H](CO)N1C[C@H](C)[C@H](CN(C)C(=O)Nc2ccc(Cl)cc2)OCCCC[C@H](C)Oc2ccc(NC(=O)C3CCCCC3)cc2C1=O` was tested. Which IC50 did it give?
A: < 35 µM

Q: How did the IC50 turn out when `C[C@H](CO)N1C[C@H](C)[C@H](CN(C)C(=O)Nc2cccc3ccccc23)OCCCC[C@H](C)Oc2ccc(NC(=O)C3CCCCC3)cc2C1=O` was run?
A: < 35 µM

Q: How did the IC50 turn out when `C[C@H](CO)N1C[C@H](C)[C@H](CN(C)C(=O)Nc2ccc3ccccc3c2)OCCCC[C@H](C)Oc2ccc(NC(=O)C3CCCCC3)cc2C1=O` was run?
A: < 35 µM

Q: `C[C@@H]1CCCCO[C@@H](CN(C)C(=O)Nc2cccc3ccccc23)[C@H](C)CN([C@@H](C)CO)C(=O)c2cc(NC(=O)C3CCCCC3)ccc2O1` was tested. Which IC50 did it give?
A: > 35 µM (inactive)

Q: With `C[C@H](CO)N1C[C@H](C)[C@H](CN(C)C(=O)Nc2ccc(F)cc2)OCCCC[C@H](C)Oc2ccc(NC(=O)C3CCOCC3)cc2C1=O` as the compound, how does the IC50 read?
A: > 35 µM (inactive)

Q: `C[C@H]1CCCCO[C@H](CN(C)C(=O)Nc2cccc3ccccc23)[C@@H](C)CN([C@@H](C)CO)C(=O)c2cc(NC(=O)C3CCCCC3)ccc2O1` was tested. Which IC50 did it give?
A: > 35 µM (inactive)
